Experimental data taken from the NIST ThermoML archive (doi:10.1007/s10765-009-0602-6).

Test: molar heat capacity at constant volume; xn = mol fraction of the nth substance listed
Settings: Fluid (supercritical or subcritical phases), isochoric heat capacity, x1 = 0.2607

N [ammonia] + O
Settings | molar heat capacity at constant volume [J/K/mol]
602.99 K, Mass density=227.54 kg/m3 | 102.11
602.99 K, Mass density=230.31 kg/m3 | 103.53
602.99 K, Mass density=311.19 kg/m3 | 92.66
602.99 K, Mass density=342.18 kg/m3 | 84.9
603.01 K, Mass density=218.92 kg/m3 | 92.95
603.08 K, Mass density=205.58 kg/m3 | 71.27
603.08 K, Mass density=214.83 kg/m3 | 91.92
603.08 K, Mass density=218.92 kg/m3 | 93.46
603.08 K, Mass density=224.53 kg/m3 | 102.11
603.08 K, Mass density=227.54 kg/m3 | 94.83
603.08 K, Mass density=230.31 kg/m3 | 97.85
603.08 K, Mass density=311.19 kg/m3 | 88.26
603.1 K, Mass density=214.83 kg/m3 | 85.33
603.16 K, Mass density=205.58 kg/m3 | 70.95
603.16 K, Mass density=227.54 kg/m3 | 89.2
603.16 K, Mass density=230.31 kg/m3 | 92.7
603.16 K, Mass density=311.19 kg/m3 | 87
603.17 K, Mass density=224.53 kg/m3 | 98.9
603.17 K, Mass density=243.98 kg/m3 | 88.9
603.17 K, Mass density=260.02 kg/m3 | 88.9
603.25 K, Mass density=205.58 kg/m3 | 73.52
603.25 K, Mass density=224.53 kg/m3 | 95.33
603.25 K, Mass density=227.54 kg/m3 | 90.78
603.25 K, Mass density=311.19 kg/m3 | 89.86
603.26 K, Mass density=230.31 kg/m3 | 91.49
603.26 K, Mass density=243.98 kg/m3 | 86.61
603.26 K, Mass density=260.02 kg/m3 | 86.61
603.33 K, Mass density=224.53 kg/m3 | 94.9
603.34 K, Mass density=205.58 kg/m3 | 69.68
603.34 K, Mass density=243.98 kg/m3 | 87.69
603.34 K, Mass density=260.02 kg/m3 | 87.69
603.42 K, Mass density=205.58 kg/m3 | 67.87
603.42 K, Mass density=224.53 kg/m3 | 95.2
603.42 K, Mass density=311.19 kg/m3 | 88.62
603.43 K, Mass density=243.98 kg/m3 | 88.17
603.43 K, Mass density=260.02 kg/m3 | 88.17
603.51 K, Mass density=205.58 kg/m3 | 72.19
603.51 K, Mass density=243.98 kg/m3 | 85.63
603.51 K, Mass density=260.02 kg/m3 | 85.63
603.58 K, Mass density=243.98 kg/m3 | 83.27
603.58 K, Mass density=260.02 kg/m3 | 83.27
603.59 K, Mass density=205.58 kg/m3 | 69.01
603.59 K, Mass density=227.54 kg/m3 | 89.22
603.6 K, Mass density=214.83 kg/m3 | 85.67
603.67 K, Mass density=230.31 kg/m3 | 84.99
603.68 K, Mass density=214.83 kg/m3 | 84.57
603.68 K, Mass density=227.54 kg/m3 | 87.34
603.69 K, Mass density=243.98 kg/m3 | 85.13
603.69 K, Mass density=260.02 kg/m3 | 85.13
603.76 K, Mass density=227.54 kg/m3 | 89.27
603.77 K, Mass density=214.83 kg/m3 | 81.81
603.77 K, Mass density=218.92 kg/m3 | 89.86
603.78 K, Mass density=243.98 kg/m3 | 82.7
603.78 K, Mass density=260.02 kg/m3 | 82.7
603.85 K, Mass density=224.53 kg/m3 | 94
603.85 K, Mass density=227.54 kg/m3 | 85.53
603.86 K, Mass density=218.92 kg/m3 | 86.91
603.86 K, Mass density=260.02 kg/m3 | 83.32
603.92 K, Mass density=214.83 kg/m3 | 84.57
603.93 K, Mass density=227.54 kg/m3 | 84.41
603.94 K, Mass density=224.53 kg/m3 | 94.9
603.94 K, Mass density=230.31 kg/m3 | 86.75
604.02 K, Mass density=224.53 kg/m3 | 91.83
604.02 K, Mass density=227.54 kg/m3 | 87.55
604.04 K, Mass density=214.83 kg/m3 | 80.85
604.09 K, Mass density=214.83 kg/m3 | 82.56
604.11 K, Mass density=224.53 kg/m3 | 94.23
604.11 K, Mass density=227.54 kg/m3 | 83.91
604.12 K, Mass density=230.31 kg/m3 | 81.87
604.19 K, Mass density=224.53 kg/m3 | 93.25
604.19 K, Mass density=227.54 kg/m3 | 84.67
604.2 K, Mass density=214.83 kg/m3 | 82.1
604.28 K, Mass density=214.83 kg/m3 | 79.51
604.28 K, Mass density=224.53 kg/m3 | 89.96
604.28 K, Mass density=227.54 kg/m3 | 86.4
604.31 K, Mass density=230.31 kg/m3 | 80.09
604.36 K, Mass density=224.53 kg/m3 | 91.15
604.43 K, Mass density=230.31 kg/m3 | 85.06
604.45 K, Mass density=224.53 kg/m3 | 90.84
604.52 K, Mass density=230.31 kg/m3 | 82.6
605.13 K, Mass density=329 kg/m3 | 85.88
605.22 K, Mass density=329 kg/m3 | 88.22
